From patent US20240327411A1, “SIRT6 ACTIVATORS” (The Board of Regents of The University of Texas System, priority 2022, published 2024)
Values joined by “and” are separate entries in the source; they are usually repeats but may differ in a detail not shown here. Equal entries are not always repeated.

Target: Sirt6 (Homo sapiens, UniProt Q8N6T7)
Experiment: Sirt6-dependent peptide deacetylation, FLUOR DE LYS / Sirt6 fluorometric activity kit
Type: biochemical
Conditions: mean ± SD, at least two independent experiments; for Activation Fold 100 μM: compound at 100 μM; for Activation Fold 30 μM: compound at 30 μM

Sequence of Sirt6 (Q8N6T7 whole entry): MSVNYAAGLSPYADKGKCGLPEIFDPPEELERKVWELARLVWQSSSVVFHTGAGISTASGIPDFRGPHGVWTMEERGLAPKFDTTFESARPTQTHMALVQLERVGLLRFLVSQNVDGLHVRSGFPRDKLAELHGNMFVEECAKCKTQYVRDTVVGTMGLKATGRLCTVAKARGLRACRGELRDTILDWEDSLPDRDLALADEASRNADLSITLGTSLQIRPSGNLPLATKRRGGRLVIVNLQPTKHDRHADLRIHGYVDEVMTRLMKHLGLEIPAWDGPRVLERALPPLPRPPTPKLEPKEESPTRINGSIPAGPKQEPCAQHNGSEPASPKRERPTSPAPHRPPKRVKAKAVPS

Row | Structure (SMILES) | Activation Fold 100 μM | Activation Fold 30 μM
1 | Clc1ncccc1C1Nc2ccccc2-n2cccc21 (stereo not drawn) [Compound 14, 4-(2-Chloropyridin-3-yl)-4,5-dihydropyrrolo[1,2-a]quinoxaline] | 1.04 ± 0.02 fold | 
2 | CN(C)c1ncccc1C1Nc2ccccc2-n2cccc21 (stereo not drawn) [Compound 15, 3-(4,5-Dihydropyrrolo[1,2-a]quinoxalin-4-yl)-N,N-dimethylpyridin-2-amine] | 1.08 ± 0.09 fold | 
3 | c1ccc2c(c1)NC(c1cccnc1N1CCC1)c1cccn1-2 (stereo not drawn) [Compound 16, 4-(2-(Azetidin-1-yl)pyridin-3-yl)-4,5-dihydropyrrolo[1,2-a]quinoxaline] | 1.38 ± 0.11 fold | 
4 | OC1CN(c2ncccc2C2Nc3ccccc3-n3cccc32)C1 (stereo not drawn) [Compound 17, 1-(3-(4,5-Dihydropyrrolo[1,2-a]quinoxalin-4-yl)pyridin-2-yl)azetidin-3-ol] | 1.47 ± 0.10 fold | 
5 | c1ccc2c(c1)NC(c1cccnc1N1CCCC1)c1cccn1-2 (stereo not drawn) [Compound 18, 4-(2-(Pyrrolidin-1-yl)pyridin-3-yl)-4,5-dihydropyrrolo[1,2-a]quinoxaline] | 1.22 ± 0.03 fold | 
6 | CN1CCCN(c2ncccc2C2Nc3ccccc3-n3cccc32)CC1 (stereo not drawn) [Compound 19, 4-(2-(4-Methyl-1,4-diazepan-1-yl)pyridin-3-yl)-4,5-dihydropyrrolo[1,2-a]quinoxaline] | 4.23 ± 0.06 fold | 2.18 ± 0.02 fold
7 | CN1C[C@@H]2CN(c3ncccc3C3Nc4ccccc4-n4cccc43)C[C@@H]2C1 (stereo partly drawn) [Compound 20, 4-(2-((3aR,6aS)-5-Methylhexahydropyrrolo[3,4-c]pyrrol-2(1H)-yl)pyridin-3-yl)-4,5-dihydropyrrolo[1,2-a]quinoxaline] | 4.24 ± 0.04 fold | 2.00 ± 0.11 fold
8 | CN1CCN(c2ncccc2C2Nc3ccccc3-n3cccc32)CC1 (stereo not drawn) [Compound 21, 4-(2-(4-Methylpiperazin-1-yl)pyridin-3-yl)-4,5-dihydropyrrolo[1,2-a]quinoxaline] | 4.62 fold and 4.62 ± 0.12 fold | 2.44 fold and 2.44 ± 0.04 fold
9 | CC(=O)N1CCN(c2ncccc2C2Nc3ccccc3-n3cccc32)CC1 (stereo not drawn) [Compound 22, 1-(4-(3-(4,5-Dihydropyrrolo[1,2-a]quinoxalin-4-yl)pyridin-2-yl)piperazin-1-yl)ethan-1-one] | 2.74 fold and 2.74 ± 0.10 fold | 1.60 ± 0.01 fold
10 | CS(=O)(=O)N1CCN(c2ncccc2C2Nc3ccccc3-n3cccc32)CC1 (stereo not drawn) [Compound 23, 4-(2-(4-(Methylsulfonyl)piperazin-1-yl)pyridin-3-yl)-4,5-dihydropyrrolo[1,2-a]quinoxaline] | 3.63 fold and 3.63 ± 0.10 fold | 2.03 ± 0.02 fold
11 | FC1(F)CCN(c2ncccc2C2Nc3ccccc3-n3cccc32)CC1 (stereo not drawn) [Compound 25, 4-(2-(4,4-Difluoropiperidin-1-yl)pyridin-3-yl)-4,5-dihydropyrrolo[1,2-a]quinoxaline] | ~2 fold and 1.54 ± 0.03 fold | 

Continued, values first:

Row | Activation Fold 100 μM | Activation Fold 30 μM | Structure (SMILES)
12 | ~2 fold and 2.24 ± 0.09 fold | 1.32 ± 0.01 fold | O=S1(=O)CCN(c2ncccc2C2Nc3ccccc3-n3cccc32)CC1 (stereo not drawn) [Compound 26, 4-(3-(4,5-Dihydropyrrolo[1,2-a]quinoxalin-4-yl)pyridin-2-yl)thiomorpholine 1,1-dioxide]
13 | ~2 fold and 2.38 ± 0.15 fold | 1.29 ± 0.05 fold | OC1CCN(c2ncccc2C2Nc3ccccc3-n3cccc32)CC1 (stereo not drawn) [Compound 27, 1-(3-(4,5-Dihydropyrrolo[1,2-a]quinoxalin-4-yl)pyridin-2-yl)piperidin-4-ol]
14 | 3.44 fold and 3.44 ± 0.07 fold | 1.89 ± 0.01 fold | c1ccc2c(c1)NC(c1cccnc1N1CCC(N3CCCC3)CC1)c1cccn1-2 (stereo not drawn) [Compound 29, 4-(2-(4-(Pyrrolidin-1-yl)piperidin-1-yl)pyridin-3-yl)-4,5-dihydropyrrolo[1,2-a]quinoxaline]
15 | 5.02 ± 0.25 fold | 3.13 ± 0.14 fold | COCCCN1CCN(c2ncccc2C2Nc3ccccc3-n3cccc32)CC1 (stereo not drawn) [Compound 37, 4-(2-(4-(3-Methoxypropyl)piperazin-1-yl)pyridin-3-yl)-4,5-dihydropyrrolo[1,2-a]quinoxaline]
16 | 6.60 ± 0.22 fold | 3.21 ± 0.06 fold | CN(C)C(=O)CN1CCN(c2ncccc2C2Nc3ccccc3-n3cccc32)CC1 (stereo not drawn) [Compound 39, 2-(4-(3-(4,5-Dihydropyrrolo[1,2-a]quinoxalin-4-yl)pyridin-2-yl)piperazin-1-yl)-N,N-dimethylacetamide]
17 | 4.74 ± 0.26 fold | 2.37 ± 0.04 fold | N#CCN1CCN(c2ncccc2C2Nc3ccccc3-n3cccc32)CC1 (stereo not drawn) [Compound 40, 2-(4-(3-(4,5-Dihydropyrrolo[1,2-a]quinoxalin-4-yl)pyridin-2-yl)piperazin-1-yl)acetonitrile]
18 | 3.43 ± 0.48 fold | 1.73 ± 0.12 fold | NC(=O)CN1CCN(c2ncccc2C2Nc3ccccc3-n3cccc32)CC1 (stereo not drawn) [Compound 41, 2-(4-(3-(4,5-Dihydropyrrolo[1,2-a]quinoxalin-4-yl)pyridin-2-yl)piperazin-1-yl)acetamide]
19 | 2.84 ± 0.28 fold | 1.93 ± 0.02 fold | O=C(CCl)N1CCN(c2ncccc2C2Nc3ccccc3-n3cccc32)CC1 (stereo not drawn) [Compound 42, 2-Chloro-1-(4-(3-(4,5-dihydropyrrolo[1,2-a]quinoxalin-4-yl)pyridin-2-yl)piperazin-1-yl)ethan-1-one]
20 | 3.78 ± 0.15 fold | 2.31 ± 0.07 fold | CN(C)CC(=O)N1CCN(c2ncccc2C2Nc3ccccc3-n3cccc32)CC1 (stereo not drawn) [Compound 43, 1-(4-(3-(4,5-Dihydropyrrolo[1,2-a]quinoxalin-4-yl)pyridin-2-yl)piperazin-1-yl)-2-(dimethylamino)ethan-1-one]
21 | 5.26 fold and 5.26 ± 0.13 fold | 2.67 fold and 2.67 ± 0.19 fold | O=C(N1CCN(c2ncccc2C2Nc3ccccc3-n3cccc32)CC1)N1CC(O)C1 (stereo not drawn) [Compound 44, (4-(3-(4,5-Dihydropyrrolo[1,2-a]quinoxalin-4-yl)pyridin-2-yl)piperazin-1-yl)(3-hydroxyazetidin-1-yl)methanone]
22 | 5.85 ± 0.01 fold | 2.81 ± 0.01 fold | c1ccc2c(c1)NC(c1cccnc1N1CCN(CCN3CCC3)CC1)c1cccn1-2 (stereo not drawn) [Compound 45, 4-(2-(4-(2-(Azetidin-1-yl)ethyl)piperazin-1-yl)pyridin-3-yl)-4,5-dihydropyrrolo[1,2-a]quinoxaline]
23 | 5.64 ± 0.43 fold | 3.48 ± 0.02 fold | O=C1CCCN1CCN1CCN(c2ncccc2C2Nc3ccccc3-n3cccc32)CC1 (stereo not drawn) [Compound 48, 1-(2-(4-(3-(4,5-Dihydropyrrolo[1,2-a]quinoxalin-4-yl)pyridin-2-yl)piperazin-1-yl)ethyl)pyrrolidin-2-one]
24 | 5.99 ± 0.21 fold | 3.02 ± 0.04 fold | c1ccc2c(c1)NC(c1cccnc1N1CCN(CCN3CCOCC3)CC1)c1cccn1-2 (stereo not drawn) [Compound 49, 4-(2-(4-(3-(4,5-Dihydropyrrolo[1,2-a]quinoxalin-4-yl)pyridin-2-yl)piperazin-1-yl)ethyl)morpholine]
